# Data: patent US11248229B2, “Inhibition of KMT2D for the treatment of cancer” (MEMORIAL SLOAN-KETTERING CANCER CENTER, priority 2016, dated 2022)
# What was measured:
# T47D cells = assay: ER and FOXA1 ChIP-seq upon BYL719 treatment; format: cell-based, human
# Procedure: Cells were crosslinked with 1% paraformaldehyde added directly to the culture medium to a final concentration of 1% and incubated at room temperature for 15 minutes. The crosslinked cells were quenched with ice-cold glycine for 5 minutes, washed with PBS and collected. The cells were then lysed with SDS lysis buffer (10 ml of 1% SDS, 10 mM EDTA, 50 mM Tris-HCl, pH 8.1) containing protease and phosphatase inhibitors for 15 minutes prior to sonication. Cells were sonicated in 10-s pulses for a total of 10 min. […]
# Paired ends 36 bp sequencing was performed at the Genomics Core of Memorial Sloan Kettering Cancer Center using HiSeq (Illumina). Reads were first processed with Trimmomatic to remove the adaptor sequences and bases with quality scores below 20 and reads with less than 30 remaining bases were discarded^34. Trimmed reads were then aligned to hg19 human genome with the bowtie aligner^35. […] To find a set of peaks that are reproducible across the two biological replicates of a given cell condition, the per-replicate P-value of each peak was calculated using only the read count at the peak from the individual replicate and estimated the irreproducible discovery rate (IDR)^37 from the two sets of P-values that the replicates produced. […]
# Differentially accessible peaks from combined atlas were identified with […] by counting all read ends overlapping peaks in each condition. […]
# [1] = test system: enhancers or promoters of canonical ER target genes in T47D and MCF7 cells; assay: ChIP-qPCR of ER, FOXA1, PBX1 and H3K4me1/2 occupancy at ER target genes; format: cell-based, human; conditions: DMSO or BYL719 for 24 h
# Procedure: (§1) Cells were crosslinked with 1% paraformaldehyde added directly to the culture medium to a final concentration of 1% and incubated at room temperature for 15 minutes. The crosslinked cells were quenched with ice-cold glycine for 5 minutes, washed with PBS and collected. The cells were then lysed with SDS lysis buffer (10 ml of 1% SDS, 10 mM EDTA, 50 mM Tris-HCl, pH 8.1) containing protease and phosphatase inhibitors for 15 minutes prior to sonication. Cells were sonicated in 10-s pulses for a total of 10 min. The sheared chromatin was diluted with ChIP Dilution buffer (0.01% SDS, 1.1% Triton X-100, 1.2 mM EDTA, 16.7 mM Tris-HCl, pH 8.1, 167 mM NaCl) and incubated overnight with Protein G Dynabeads (Thermo Fisher Scientific), which were pre-incubated with specific antibodies. ChIP antibodies to the following proteins were used: FOXA1 (ab5089) Abcam, PBX1 (H00005087-MO1) from Abnova, ER alpha (sc-543) from Santa Cruz and rabbit KMT2D homemade antibody which was generated by Eurogentec (third bleed) and affinity purified against GRARLKSTASSIC peptide (SEQ ID NO: 36). […]
# [2] = test system: breast tumor samples from patients; assay: ATAC-seq of paired breast tumor biopsies from patients treated with BYL719; format: in vivo, human; conditions: paired tumor biopsies prior to therapy and on-therapy
# Text: Starting from fastq files containing ATAC-seq paired-end reads, sequencing adaptors were removed using Trimmomatic^34. Trimmed reads were mapped to the hg19 human genome using Bowtie2^35 allowing at most 1 seed mismatch and keeping only uniquely aligned reads. Duplicates were removed using Picard (http://picard.sourceforge.net). For peak-calling the read start sites were adjusted (reads aligning to the +/−strand were offset by +4 bp/−5 bp, respectively) to represent the center of the transposon binding-event, as described in Buenrostro et al.^21 For each samples, ATAC-seq was run on two biological replicates. Peak calling was performed on each condition individually by pooling reads from biological replicates and using MACS2^36 with a permissive P-value threshold (−p 1e−2). To find a set of peaks that are reproducible across the two biological replicates of a given cell condition, we calculated the per-replicate P-value of each peak using only the read count at the peak from the individual replicate and estimated the irreproducible discovery rate (IDR)^37 from the two sets of P-values that the replicates produced. […] Differentially accessible peaks from this atlas were identified with edgeR^38 by counting all read ends overlapping peaks in each condition. edgeR was run with default settings, a fold-change threshold of 2 and FDR <0.01. […]
# KMT2D = assay: ChIP-qPCR time course for KMT2D, H3K4me1 and H3K4me2 upon BYL719; format: cell-based, human; conditions: BYL719 (1 μM) for 2, 4, 8, 12 and 24 h
# Procedure: as §1
# T47D and MCF7 cells = assay: MTT cell viability assay; format: cell-based, human; conditions: BYL719 for 5 days
# Text: When indicated, MCF7 or T47D cells were transduced with lentiviruses expressing empty vector (pLKO. 1) or an shRNA against KMT2D (pLKO. 1) (disclosed in Table 1) or shRNA against FOXA1, shFOXA1 #1 TRCN0000014882; shFOXA1 #2: TRCN0000014880; or shRNA against PBX1, shPBX1 #1: TRCN0000020390; shPBX1 #2: TRCN0000020391). When indicated, MCF7 cells were transduced with pTRIPZ vectors (TRE-RFP-miR30/shRNA-UBC-IRES-PURO) targeting PBX1 or FOXA1 knockdown upon doxycycline administration. When indicated, MCF7 cells were transduced with LT3REPIR (pRRL) vector (T3G-dsRED-mirE/shRNA-PGK-PURO-IRES-rtTA3) targeting KMT2D knockdown upon doxycycline administration. For lentiviral production, 293T cells were transfected with pCMV-VSVG, pCMV-dR8.2 and the plasmid of interest using lipofectamine 3000 according to the manufacture's protocol.
# BYL719 was obtained from the Stand Up to Cancer (SU2C) pharmacy. BYL719 was dissolved in DMSO for in vitro experiments. The MTT assay was used to measure cell viability. Briefly, 5000 cells were seeded in 96 well plates, treated with BYL719 for 5 days and assayed using 0.25% MTT (Sigma) and 50 mM sodium succinate (Sigma) for 3 hours. After the formazan crystals were dissolved with DMSO, the absorbance was measured at 570 nm of wavelength. Doxycycline was purchased from Sigma.
# MCF7 xenografts = assay: MCF7 inducible shRNA in vivo xenograft; set-up: species or system athymic Foxn1nu mice
# Procedure: Animals were maintained based on the institutional guidelines of Memorial Sloan Kettering Cancer Center (Protocol number 12-10-019). 6×10^6 MCF7 cells in 1:1 DF12 media/Matrigel (Corning) were injected subcutaneously into four to six week old female athymic Foxn1^nu mice. Mice were randomized when tumors reached ˜[…] of volume. 5 mice, 10 tumors were then treated with BYL719 (25 mg×kg^−1 in 0.5%) in carboxymethylcellulose (Sigma) daily for the indicated times. Tumors were collected at the end of the experiments, two to four hours after the last treatment.
# Two way t-tests were performed using GraphPad Prism (GraphPad Software), P-values are indicated in the respective graphs. All cellular experiments were repeated at least three times. The in vivo experiments contained 10 tumors for each treatment arm and the sample size was chosen to reflect a difference in means of 20% with a power of 90%. Before the commencement of the in vivo experiments, animals were measured and randomized in groups with similar average tumor volume. Bioinformatics statistics are indicated in the respective method descriptions.
# [3] = test system: ER-dependent genes in T47D and MCF7 cells; assay: RT-qPCR of ER-dependent genes in hormone depleted cells; format: cell-based, human; conditions: cells treated with BYL719 (1 μM) for 24 h
# Text: All cell lines were obtained from ATCC and used at low passages. T47D cells were maintained in RPMI 1640 with 10% FBS, 1% L-glutamine and 1% penicillin-streptomycin. MCF7 cells were maintained in DF-12 DMEM Dulbecco medium with 10% FBS, 1% L-glutamine and 1% penicillin-streptomycin. HEK 293T cells were maintained in DMEM Dulbecco medium supplemented with 10% FBS, 1% L-glutamine and 1% penicillin-streptomycin. For RNA analysis, MCF7 cells or T47D cells underwent hormonal starvation. MCF7 and T47D were cultured for 3 days in phenol-red-free DF12 DMEM and phenol-red-free RPMI respectively, media was supplemented with 5% charcoal/dextran-treated FCS. Cells were induced with E2 (100 nM), BYL719 (1 μM) or vehicle (DMSO) for 24 hours.
# Total RNA was extracted from patient biopsies tissue using TRIzol (Life Technologies) and treated with DNAse before cDNA synthesis. cDNA synthesis was performed using the Bio-Rad cDNA synthesis kit according to the manufacturer's instructions. RNA was isolated from cells using the QIAGEN RNeasy kit. The qPCR SYBR green mix (Applied Biosystems) was used to amplify specific cDNA fragments with the oligonucleotides listed in Extended figure using the ViiA™ Real Time PCR system (Applied Biosystems). The data were analyzed by the change-in-threshold (2^−ΔΔCT) method using Actin or GAPDH as a housekeeping genes to obtain relative RNA expression. […]
smiles,measurement,setting,value
Cc1nc(NC(=O)N2CCC[C@H]2C(N)=O)sc1-c1ccnc(C(C)(C)C(F)(F)F)c1 [BYL719],co-occupancy of ER and FOXA1 at specific target loci,T47D cells; BYL719 (1 μM) for 24 h,increased co-occupancy of ER and FOXA1
same,ER binding events (ER ChIP-seq),T47D cells; DMSO or BYL719 for 24 h,induced differential ER binding
same,"binding of ER, FOXA1 and PBX1 to enhancers or promoters of canonical ER target genes",[1],significantly enhanced
same,chromatin accessibility in regions responsive to PI3K inhibition,[2],increase in chromatin accessibility
same,KMT2D recruitment at regulatory regions,KMT2D,peaked at early hours
same,abundance of H3K4me1/2 occupying regulatory regions,KMT2D,elevated at the same time points
same,"cell viability, KMT2D knockdown combined with BYL719",T47D and MCF7 cells; ER-positive cell lines,greater effect
same,viability of cells treated with BYL719 upon FOXA1 and PBX1 silencing,T47D and MCF7 cells; constitutive or inducible shRNAs,decrease the viability
same,antitumor effect of silencing KMT2D in the presence of BYL719,"MCF7 xenografts; MCF7 inducible shKMT2D xenografts, BYL719 daily 25 mg/kg",enhanced
same,anti-tumor activity of BYL719 with FOXA1 silencing,"MCF7 xenografts; MCF7 xenografts, inducible shFOXA1, BYL719 daily 25 mg/kg",markedly increased the anti-tumor activity
same,expression of ER-dependent genes in the absence of KMT2D,[3],decrease of expression
